Where “and” joins values, the source holds several entries; their conditions need not be identical. Identical values can stand only once.
Assays:
Experiment in all cases: biochemical
Type in all cases: binding
SfurOBP1 = SfurOBP1 (Sogatella furcifera, UniProt V5T8N5); conditions: OBP1, three replicate columns
Outline: (§1)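 First, 2.0 µM protein in 50 mM Tris-HCl (pH 7.4) was titrated with 1-NPN to obtain K1-NPN. Then odorants (2–20 µM final) competed against 2.0 µM 1-NPN, with fluorescence (ex 337 nm) recorded after 2 min. Ki was computed from IC50 via Ki = IC50/(1 + [1-NPN]/K1-NPN).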

SfurOBP11 = SfurOBP11 (Sogatella furcifera, UniProt V5T6E3)
Outline: as §1

SfurOBP2 = SfurOBP2 (Sogatella furcifera, UniProt V5T759)
Outline: as §1

SfurOBP3 = SfurOBP3 (Sogatella furcifera, UniProt V5T818); conditions: OBP3, three replicate columns
Outline: as §1

Chain of SfurOBP2 (V5T759 entry or part of it): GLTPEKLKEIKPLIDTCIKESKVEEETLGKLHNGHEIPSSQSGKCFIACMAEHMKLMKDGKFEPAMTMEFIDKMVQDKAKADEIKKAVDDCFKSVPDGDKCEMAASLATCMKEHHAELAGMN
Chain of SfurOBP11 (V5T6E3 entry or part of it): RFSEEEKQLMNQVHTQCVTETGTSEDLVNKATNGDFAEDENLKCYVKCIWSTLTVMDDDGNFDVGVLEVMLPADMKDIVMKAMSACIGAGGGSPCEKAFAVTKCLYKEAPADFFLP
Chain of SfurOBP3 (V5T818 entry or part of it): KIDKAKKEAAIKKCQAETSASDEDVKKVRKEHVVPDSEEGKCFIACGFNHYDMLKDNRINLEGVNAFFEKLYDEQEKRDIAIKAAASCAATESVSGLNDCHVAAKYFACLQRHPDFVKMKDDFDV
Chain of SfurOBP1 (V5T8N5 entry or part of it): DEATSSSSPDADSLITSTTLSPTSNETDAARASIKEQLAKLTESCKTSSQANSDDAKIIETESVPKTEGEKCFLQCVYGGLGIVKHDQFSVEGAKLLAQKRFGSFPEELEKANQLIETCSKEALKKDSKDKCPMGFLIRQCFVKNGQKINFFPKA

SMILES: CCCCCCCCCCCCCCCC(=O)OC [MH(methyl hexadecanoate)]
- Fluorescence competitive binding assay, fluorescence intensity (SfurOBP1; ligand concentration 2 (μM)): 12147 and 12451 and 12785
- Fluorescence competitive binding assay, fluorescence intensity (SfurOBP1; ligand concentration 4 (μM)): 16267 and 16004 and 15123
- Fluorescence competitive binding assay, fluorescence intensity (SfurOBP1; ligand concentration 6 (μM)): 22521 and 20565 and 17849
- Fluorescence competitive binding assay, fluorescence intensity (SfurOBP1; ligand concentration 8 (μM)): 45300 and 22408 and 22243
- Fluorescence competitive binding assay, fluorescence intensity (SfurOBP1; ligand concentration 10 (μM)): 28286 and 29968 and 28368
- Fluorescence competitive binding assay, fluorescence intensity (SfurOBP1; ligand concentration 12 (μM)): 32121 and 35150 and 30012
- Fluorescence competitive binding assay, fluorescence intensity (SfurOBP1; ligand concentration 14 (μM)): 38613 and 36070 and 36799
- Fluorescence competitive binding assay, fluorescence intensity (SfurOBP1; ligand concentration 16 (μM)): 34740 and 38687 and 36378
- Fluorescence competitive binding assay, fluorescence intensity (SfurOBP1; ligand concentration 18 (μM)): 40518 and 49298 and 40325
- Fluorescence competitive binding assay, fluorescence intensity (SfurOBP1; ligand concentration 20 (μM)): 47871 and 41141 and 44944
- Fluorescence intensity, fluorescence competitive binding assay, OBP11 (SfurOBP11; ligand concentration 2, replicate 1): 29421
- Fluorescence intensity, fluorescence competitive binding assay, OBP11 (SfurOBP11; ligand concentration 2, replicate 2): 25881
- Fluorescence intensity, fluorescence competitive binding assay, OBP11 (SfurOBP11; ligand concentration 2, replicate 3): 28224
- Fluorescence intensity, fluorescence competitive binding assay, OBP11 (SfurOBP11; ligand concentration 4, replicate 1): 30123
- Fluorescence intensity, fluorescence competitive binding assay, OBP11 (SfurOBP11; ligand concentration 4, replicate 2): 33254
- Fluorescence intensity, fluorescence competitive binding assay, OBP11 (SfurOBP11; ligand concentration 4, replicate 3): 33112
- Fluorescence intensity, fluorescence competitive binding assay, OBP11 (SfurOBP11; ligand concentration 6, replicate 1): 36335
- Fluorescence intensity, fluorescence competitive binding assay, OBP11 (SfurOBP11; ligand concentration 6, replicate 2): 36906
- Fluorescence intensity, fluorescence competitive binding assay, OBP11 (SfurOBP11; ligand concentration 6, replicate 3): 37537
- Fluorescence intensity, fluorescence competitive binding assay, OBP11 (SfurOBP11; ligand concentration 8, replicate 1): 38631
- Fluorescence intensity, fluorescence competitive binding assay, OBP11 (SfurOBP11; ligand concentration 8, replicate 2): 37383
- Fluorescence intensity, fluorescence competitive binding assay, OBP11 (SfurOBP11; ligand concentration 8, replicate 3): 37911
- Fluorescence intensity, fluorescence competitive binding assay, OBP11 (SfurOBP11; ligand concentration 10, replicate 1): 41192
- Fluorescence intensity, fluorescence competitive binding assay, OBP11 (SfurOBP11; ligand concentration 10, replicate 2): 43341
- Fluorescence intensity, fluorescence competitive binding assay, OBP11 (SfurOBP11; ligand concentration 10, replicate 3): 42267
- Fluorescence intensity, fluorescence competitive binding assay, OBP11 (SfurOBP11; ligand concentration 12, replicate 1): 42172
- Fluorescence intensity, fluorescence competitive binding assay, OBP11 (SfurOBP11; ligand concentration 12, replicate 2): 43002
- Fluorescence intensity, fluorescence competitive binding assay, OBP11 (SfurOBP11; ligand concentration 12, replicate 3): 44132
- Fluorescence intensity, fluorescence competitive binding assay, OBP11 (SfurOBP11; ligand concentration 14, replicate 1): 50939
- Fluorescence intensity, fluorescence competitive binding assay, OBP11 (SfurOBP11; ligand concentration 14, replicate 2): 48639
- Fluorescence intensity, fluorescence competitive binding assay, OBP11 (SfurOBP11; ligand concentration 14, replicate 3): 49789
- Fluorescence intensity, fluorescence competitive binding assay, OBP11 (SfurOBP11; ligand concentration 16, replicate 1): 53380
- Fluorescence intensity, fluorescence competitive binding assay, OBP11 (SfurOBP11; ligand concentration 16, replicate 2): 53280
- Fluorescence intensity, fluorescence competitive binding assay, OBP11 (SfurOBP11; ligand concentration 16, replicate 3): 53495
- Fluorescence intensity, fluorescence competitive binding assay, OBP11 (SfurOBP11; ligand concentration 18, replicate 1): 69760
- Fluorescence intensity, fluorescence competitive binding assay, OBP11 (SfurOBP11; ligand concentration 18, replicate 2): 71076
- Fluorescence intensity, fluorescence competitive binding assay, OBP11 (SfurOBP11; ligand concentration 18, replicate 3): 64769
- Fluorescence intensity, fluorescence competitive binding assay, OBP11 (SfurOBP11; ligand concentration 20, replicate 1): 67623
- Fluorescence intensity, fluorescence competitive binding assay, OBP11 (SfurOBP11; ligand concentration 20, replicate 2): 62432
- Fluorescence intensity, fluorescence competitive binding assay, OBP11 (SfurOBP11; ligand concentration 20, replicate 3): 62669
- Fluorescence competitive binding assay, OBP2 (raw fluorescence reading) (SfurOBP2; ligand concentration 2 (unit not given), replicate column 1 of 3): 36028
- Fluorescence competitive binding assay, OBP2 (raw fluorescence reading) (SfurOBP2; ligand concentration 2 (unit not given), replicate column 2 of 3): 29538
- Fluorescence competitive binding assay, OBP2 (raw fluorescence reading) (SfurOBP2; ligand concentration 2 (unit not given), replicate column 3 of 3): 32173
- Fluorescence competitive binding assay, OBP2 (raw fluorescence reading) (SfurOBP2; ligand concentration 4 (unit not given), replicate column 1 of 3): 32085
- Fluorescence competitive binding assay, OBP2 (raw fluorescence reading) (SfurOBP2; ligand concentration 4 (unit not given), replicate column 2 of 3): 39967
- Fluorescence competitive binding assay, OBP2 (raw fluorescence reading) (SfurOBP2; ligand concentration 4 (unit not given), replicate column 3 of 3): 36772
- Fluorescence competitive binding assay, OBP2 (raw fluorescence reading) (SfurOBP2; ligand concentration 6 (unit not given), replicate column 1 of 3): 51385
- Fluorescence competitive binding assay, OBP2 (raw fluorescence reading) (SfurOBP2; ligand concentration 6 (unit not given), replicate column 2 of 3): 38065
- Fluorescence competitive binding assay, OBP2 (raw fluorescence reading) (SfurOBP2; ligand concentration 6 (unit not given), replicate column 3 of 3): 41844
- Fluorescence competitive binding assay, OBP2 (raw fluorescence reading) (SfurOBP2; ligand concentration 8 (unit not given), replicate column 1 of 3): 39886
- Fluorescence competitive binding assay, OBP2 (raw fluorescence reading) (SfurOBP2; ligand concentration 8 (unit not given), replicate column 2 of 3): 44063
- Fluorescence competitive binding assay, OBP2 (raw fluorescence reading) (SfurOBP2; ligand concentration 8 (unit not given), replicate column 3 of 3): 42977
- Fluorescence competitive binding assay, OBP2 (raw fluorescence reading) (SfurOBP2; ligand concentration 10 (unit not given), replicate column 1 of 3): 53038
- Fluorescence competitive binding assay, OBP2 (raw fluorescence reading) (SfurOBP2; ligand concentration 10 (unit not given), replicate column 2 of 3): 51904
- Fluorescence competitive binding assay, OBP2 (raw fluorescence reading) (SfurOBP2; ligand concentration 10 (unit not given), replicate column 3 of 3): 31312
- Fluorescence competitive binding assay, OBP2 (raw fluorescence reading) (SfurOBP2; ligand concentration 12 (unit not given), replicate column 1 of 3): 66556
- Fluorescence competitive binding assay, OBP2 (raw fluorescence reading) (SfurOBP2; ligand concentration 12 (unit not given), replicate column 2 of 3): 51896
- Fluorescence competitive binding assay, OBP2 (raw fluorescence reading) (SfurOBP2; ligand concentration 12 (unit not given), replicate column 3 of 3): 78968
- Fluorescence competitive binding assay, OBP2 (raw fluorescence reading) (SfurOBP2; ligand concentration 14 (unit not given), replicate column 1 of 3): 59847
- Fluorescence competitive binding assay, OBP2 (raw fluorescence reading) (SfurOBP2; ligand concentration 14 (unit not given), replicate column 2 of 3): 56230
- Fluorescence competitive binding assay, OBP2 (raw fluorescence reading) (SfurOBP2; ligand concentration 14 (unit not given), replicate column 3 of 3): 65733
- Fluorescence competitive binding assay, OBP2 (raw fluorescence reading) (SfurOBP2; ligand concentration 16 (unit not given), replicate column 1 of 3): 57526
- Fluorescence competitive binding assay, OBP2 (raw fluorescence reading) (SfurOBP2; ligand concentration 16 (unit not given), replicate column 2 of 3): 53371
- Fluorescence competitive binding assay, OBP2 (raw fluorescence reading) (SfurOBP2; ligand concentration 16 (unit not given), replicate column 3 of 3): 59678
- Fluorescence competitive binding assay, OBP2 (raw fluorescence reading) (SfurOBP2; ligand concentration 18 (unit not given), replicate column 1 of 3): 69952
- Fluorescence competitive binding assay, OBP2 (raw fluorescence reading) (SfurOBP2; ligand concentration 18 (unit not given), replicate column 2 of 3): 81927
- Fluorescence competitive binding assay, OBP2 (raw fluorescence reading) (SfurOBP2; ligand concentration 18 (unit not given), replicate column 3 of 3): 73816
- Fluorescence competitive binding assay, OBP2 (raw fluorescence reading) (SfurOBP2; ligand concentration 20 (unit not given), replicate column 1 of 3): 72726
- Fluorescence competitive binding assay, OBP2 (raw fluorescence reading) (SfurOBP2; ligand concentration 20 (unit not given), replicate column 2 of 3): 69859
- Fluorescence competitive binding assay, OBP2 (raw fluorescence reading) (SfurOBP2; ligand concentration 20 (unit not given), replicate column 3 of 3): 85793
- Fluorescence competitive binding assay, fluorescence intensity (SfurOBP3; ligand concentration 2): 79169 and 74941 and 94761
- Fluorescence competitive binding assay, fluorescence intensity (SfurOBP3; ligand concentration 4): 75066 and 75962 and 116353
- Fluorescence competitive binding assay, fluorescence intensity (SfurOBP3; ligand concentration 6): 80726 and 113361 and 131059
- Fluorescence competitive binding assay, fluorescence intensity (SfurOBP3; ligand concentration 8): 127533 and 115294 and 124955
- Fluorescence competitive binding assay, fluorescence intensity (SfurOBP3; ligand concentration 10): 151439 and 140422 and 180514
- Fluorescence competitive binding assay, fluorescence intensity (SfurOBP3; ligand concentration 12): 128094 and 97542 and 122147
- Fluorescence competitive binding assay, fluorescence intensity (SfurOBP3; ligand concentration 14): 143468 and 130975 and 143763
- Fluorescence competitive binding assay, fluorescence intensity (SfurOBP3; ligand concentration 16): 147668 and 180253 and 155136
- Fluorescence competitive binding assay, fluorescence intensity (SfurOBP3; ligand concentration 18): 151347 and 96227 and 180613
- Fluorescence competitive binding assay, fluorescence intensity (SfurOBP3; ligand concentration 20): 179130 and 144685 and 179646
